US20260315454A1, “Use of quinoline-4-carboxylic acid in the preparation of anti-aging product as well as product for protecting liver and promoting liver regeneration” (Guangzhou Riju Trade Development Co., Ltd., priority 2023, published 2026)

How the values were obtained:
[1] = system: High-generation MSCs (Old MSCs); experiment: CCK8 assay, proliferation of high-generation mesenchymal stem cells; format: cell-based; details: P10-15 MSCs; 50 μM, 100 μM, and 200 μM QCA in the medium
Experimental: (§1) 4. High-generation MSCs (Old MSCs) at P10-15 were plated in a 96 plate, and 50 μM, 100 μM, and 200 μM of QCA were added to the medium, respectively. The medium without adding QCA was used as a control. Low-generation MSCs (Young MSCs) at P4-7, high-generation MSCs (Old MSCs) at P10-15, as well as high-generation MSCs respectively treated with 50 μM and 200 μM QCA for 72 h, were subjected to Ki67 immunofluorescence staining, and the results were shown in FIG. 4B.

[2] = system: High-generation MSCs (Old MSCs); experiment: Ki67 immunofluorescence staining of high-generation mesenchymal stem cells; format: cell-based; details: P10-15 MSCs; 50 μM and 200 μM QCA for 72 h
Experimental: as §1

[3] = system: High-generation MSCs (Old MSCs); experiment: TUNEL staining of high-generation mesenchymal stem cells; format: cell-based; details: P10-15 MSCs; 50 μM and 200 μM QCA for 72 h
Experimental: (§2) 5. Low-generation MSCs (Young MSCs) at P4-7, high-generation MSCs (Old MSCs) at P10-15, as well as old MSCs respectively treated with 50 μM and 200 μM QCA for 72 h were subjected to TUNEL staining, and the results were shown in FIG. 5A. Old MSCs with 50 μM QCA were added to the medium all the time (a fresh medium containing QCA was changed every 2-3 days), and the medium without adding QCA was used as a control. The cells were passaged for 3 consecutive generations (passaged when the cells were 80-90% confluent) before being used for β-Gal staining tests, and the results were shown in FIG. 5B.

[4] = system: High-generation MSCs (Old MSCs); experiment: β-Gal staining of high-generation mesenchymal stem cells; format: cell-based; details: 50 μM QCA all the time, passaged for 3 consecutive generations
Experimental: as §2

W1118 fruit flies = experiment: lifespan test for fruit flies (survival curves); format: in vivo; details: male W1118; 115 μL of QCA (100 mM, 2 mg QCA/tube) in medium; days 20-30 and 40-50
Experimental: (6) The regular medium for rearing fruit flies was added with a preservative and dispensed. After which, 115 μL of QCA (100 mM, equivalent to 2 mg QCA/tube) was added dropwise to the medium, and the same volume of 95% ethanol was added to the control tube. On days 20-30 and 40-50 of fruit flies rearing, the tubes were replaced with QCA-containing rearing tubes for rearing. 3 male W1118 fruit flies and 3 virgin W1118 fruit flies were added to each rearing tube and bred for 3-5 days for a total of 20 tubes. The parental fruit flies were cleared after about 5-6 days, and then adult occurred in about 10 days. A round of picking male fruit flies within 1 day after emergence was performed at a fixed time point each day for a total of 400 fruit flies, in which 20 fruit flies were placed in each tube labeled with the name, date, and number for a total of 20 tubes. Fruit flies were reared at 25° C., 50% humidity and 12 h light/12 h dark, the number of dead fruit flies in the tubes was counted and recorded every day, and the rearing tubes were changed every 3-4 days. The lifespan test for fruit flies in each group needed to be repeated three times independently and the recordings were entered into statistical software for analysis.

fruit flies = experiment: tube-climbing test of fruit flies; format: in vivo; details: 20 male fruit flies; 17.5 cm marker; performance at 120 s
[5] = system: 21 month-old C57BL6/J mice; experiment: observation of coat status and dermatitis in old mice; format: in vivo; details: 5 mg/kg QCA by consecutive gavage for 4 months
Experimental: (§3) (7) 21 month-old C57BL6/J mice were randomly divided into control and QCA groups. 0.9% saline was given to the control group (n=7 for male mice, and n=12 for female mice); and 5 mg/kg QCA was given to the QCA group (n=9 for male mice, and n=13 for female mice) by consecutive gavage for 4 months. […] The test mice were placed on the grip strength meter and the tail of the mice was gently pulled, so that the mice grasped the probe forcefully with the forelimbs and hindlimbs. The readings on the grip strength meter were recorded when the mice exerted the maximum force, the arm strength value in mice were obtained by averaging 3 repetitions of the measurements, and the results were shown in FIG. 7B. Blood was taken from the tail vein of mice 4 months after administration by gavage, the proportion of neutrophils (NEU) was measured by routine blood test, and the results were shown in FIG. 7C. […] The mice were examined periodically for the presence of spontaneous tumors, and the number of mice with spontaneous tumors in each group was recorded. […] Concentrations of alanine aminotransferase (ALT), aspartate aminotransferase (AST), and lactate dehydrogenase (LDH) in plasma were measured using a HITACHI 7600 Series (Japan) biochemical detector, and the results were shown in FIG. 7F. […]

[6] = system: 21 month-old C57BL6/J mice; experiment: grip strength meter, arm strength of old mice; format: in vivo; details: 5 mg/kg QCA by consecutive gavage for 4 months
Experimental: as §3

[7] = system: 21 month-old C57BL6/J mice; experiment: chronic inflammation in old mice (proportion of neutrophils by routine blood test, serum TNF-α by ELISA); format: in vivo; details: 5 mg/kg QCA by consecutive gavage for 4 months
Experimental: as §3

[8] = system: 21 month-old C57BL6/J mice; experiment: plasma ALT, AST and LDH in old mice; format: in vivo; details: aged mice, 5 mg/kg QCA by consecutive gavage for 4 months
Experimental: as §3

[9] = system: 21 month-old C57BL6/J mice; experiment: survival curves of old mice; format: in vivo; details: 5 mg/kg QCA by gavage; Ctrl (n=19) and QCA (n=26)
Experimental: (7) 21 month-old C57BL6/J mice were randomly divided into control and QCA groups. […] The test mice were placed on the grip strength meter and the tail of the mice was gently pulled, so that the mice grasped the probe forcefully with the forelimbs and hindlimbs. The readings on the grip strength meter were recorded when the mice exerted the maximum force, the arm strength value in mice were obtained by averaging 3 repetitions of the measurements, and the results were shown in FIG. 7B. Blood was taken from the tail vein of mice 4 months after administration by gavage, the proportion of neutrophils (NEU) was measured by routine blood test, and the results were shown in FIG. 7C. […] The mice were examined periodically for the presence of spontaneous tumors, and the number of mice with spontaneous tumors in each group was recorded. […] Concentrations of alanine aminotransferase (ALT), aspartate aminotransferase (AST), and lactate dehydrogenase (LDH) in plasma were measured using a HITACHI 7600 Series (Japan) biochemical detector, and the results were shown in FIG. 7F. Survival times were recorded to make the survival curves of the mice in the Ctrl (n=19) and QCA (n=26) groups, and the results were shown in FIG. 7G.

[10] = system: C57BL6/J mice older than 18 months; experiment: ⅔ partial hepatectomy model in old mice, liver to body weight ratio; format: in vivo; details: 5 mg/kg QCA intraperitoneally
Experimental: (§4) (8) Establishment of ⅔ partial hepatectomy model in old mice (⅔PHx): C57BL6/J mice older than 18 months were anesthetized with 2% isoflurane by inhalation and underwent a median abdominal incision. The left external and median lobes of the liver were resected separately with 4-0 silk sutures, and the associated vessels and bile ducts were ligated. Mice were injected intraperitoneally with 5 mg/kg QCA or an equal volume of DMSO 2 h before ⅔PHx surgery, and 24 h, 48 h and 72 h after ⅔PHx surgery, respectively. Mice were sacrificed at 6 h, 48 h and 168 h after surgery, respectively, and liver specimens and plasma were collected. The postoperative survival time of mice was recorded and used to plot survival curves. Mice were weighed in advance and livers were weighed after liver extraction so that the liver to body weight ratio could be calculated. Concentrations of alanine aminotransferase (ALT), aspartate aminotransferase (AST), and lactate dehydrogenase (LDH) in plasma were measured using a HITACHI 7600 Series (Japan) biochemical detector. Mouse liver samples collected at specific time points were fixed in 4% paraformaldehyde overnight and then embedded in paraffin. A 3 μm-thick paraffin section was made for subsequent Ki67 immunohistochemical staining, and the specific procedure was as follows: after subjecting to antigen repairing in EDTA (pH 8.0), the sections were incubated with a primary antibody overnight at 4° C., and then incubated with a secondary antibody at 37° C. for 1 h. Sections were stained with diaminobenzidine and hematoxylin, and then visualized and imaged with an optical microscope.

[11] = system: C57BL6/J mice older than 18 months; experiment: ⅔ partial hepatectomy model in old mice, plasma ALT, AST and LDH; format: in vivo; details: 5 mg/kg QCA intraperitoneally 2 h before and 24 h, 48 h and 72 h after ⅔PHx
Experimental: as §4, with “A 3 μm-thick paraffin section was made for subsequent Ki67 immunohistochemical staining, and the specific procedure was as follows: after subjecting to antigen repairing in EDTA (pH 8.0), the sections were incubated with a primary antibody overnight at 4° C., and then incubated with a secondary antibody at 37° C. for 1 h. Sections were stained with diaminobenzidine and hematoxylin, and then visualized and imaged with an optical microscope.” left out

[12] = system: C57BL6/J mice older than 18 months; experiment: ⅔ partial hepatectomy model in old mice, survival; format: in vivo; details: 5 mg/kg QCA intraperitoneally 2 h before and 24 h, 48 h and 72 h after ⅔PHx
Experimental: as §4, with “A 3 μm-thick paraffin section was made for subsequent Ki67 immunohistochemical staining, and the specific procedure was as follows: after subjecting to antigen repairing in EDTA (pH 8.0), the sections were incubated with a primary antibody overnight at 4° C., and then incubated with a secondary antibody at 37° C. for 1 h. Sections were stained with diaminobenzidine and hematoxylin, and then visualized and imaged with an optical microscope.” left out

[13] = system: C57BL6/J mice older than 18 months; experiment: ⅔ partial hepatectomy model in old mice, Ki67 immunohistochemical staining of liver; format: in vivo; details: 5 mg/kg QCA intraperitoneally 2 h before and 24 h, 48 h and 72 h after ⅔PHx
Experimental: as §4, with “A 3 μm-thick paraffin section was made for subsequent Ki67 immunohistochemical staining, and the specific procedure was as follows: after subjecting to antigen repairing in EDTA (pH 8.0), the sections were incubated with a primary antibody overnight at 4° C., and then incubated with a secondary antibody at 37° C. for 1 h. Sections were stained with diaminobenzidine and hematoxylin, and then visualized and imaged with an optical microscope.” left out

SMILES: O=C(O)c1ccnc2ccccc12 [quinoline-4-carboxylic acid]
- cell proliferation (CCK8 assay) [1]: can promote cell proliferation
- cell proliferation (Ki67 immunofluorescence staining) [2]: can promote cell proliferation
- nuclear DNA breakage (TUNEL staining) [3]: reduces nuclear DNA breakage
- cell aging (β-Gal staining) [4]: retards cell aging
- lifespan of fruit flies (survival curves) (W1118 fruit flies): prolongs the lifespan of fruit flies
- exercise capacity (tube-climbing test) (fruit flies): enhances their exercise capacity
- symptoms such as poor coat and dermatitis [5]: can reduce the symptoms such as poor coat and dermatitis in old mice
- arm strength (reflecting the muscle strength) [6]: enhance the arm strength
- chronic inflammation (neutrophils, TNF-α) [7]: down-regulate the chronic inflammation
- enzymatic indexes of liver injury (ALT, AST, LDH) [8]: down-regulate the chronic inflammation and enzymatic indexes of liver injury in aged mice
- lifespan of the mice (survival curves) [9]: prolong the lifespan of the mice
- regenerative liver to body weight ratio at 6 h ([10]; 6 h after hepatectomy): does not significantly increase
- regenerative liver to body weight ratio at 48 h ([10]; 48 h after hepatectomy): significantly increases
- regenerative liver to body weight ratio at 168 h ([10]; 168 h after hepatectomy): does not significantly increase
- enzymatic indexes of liver injury (ALT, AST, LDH) after hepatectomy [11]: attenuates the enzymatic indexes of liver injury
- survival rate of mice after hepatectomy [12]: improves the survival rate of mice after hepatectomy
- Ki67-positive cells of liver tissue (immunohistochemical staining) [13]: more Ki67-positive cells of liver tissue in the QCA group
